For assay [1], the system named is human TLR8 mutant (dIRR2). Description: TLR8 mutant (deletion in second leucine-rich repeat) NFκB-luc cellular reporter assay. The assay is classed as cell-based. More on the design: unit not given here. The following applies: HEK293 NFκB-luc reporter, mutant TLR8, 6 hours incubation. The protocol:
The ability of compounds to activate human TLR7 and/or TLR8 was assessed in a cellular reporter assay using HEK293 cells transiently transfected with a TLR7 or TLR8 expression vector and NFκB-luc reporter construct. In one instance the TLR expression construct expresses the respective wild type sequence or a mutant sequence comprising a deletion in the second leucine-rich repeat of the TLR.
Briefly, HEK293 cells were grown in culture medium (DMEM supplemented with 10% FCS and 2 mM Glutamine). For transfection of cells in 10 cm dishes, cells were detached with Trypsin-EDTA, transfected with a mix of CMV-TLR7 or TLR8 plasmid (750 ng), NFκB-luc plasmid (375 ng) and a transfection reagent and incubated 24 hours at 37° C. in a humidified 5% CO2 atmosphere. Transfected cells were then detached with Trypsin-EDTA, washed in PBS and resuspended in medium to a density of 1.67×10^5 cells/mL. Thirty microliters of cells were then dispensed into each well in 384-well plates, where 10 μL of compound in 4% DMSO was already present. Following 6 hours incubation at 37° C., 5% CO2, the luciferase activity was determined by adding 15 μl of Steady Lite Plus substrate (Perkin Elmer) to each well and readout performed on a ViewLux ultraHTS microplate imager (Perkin Elmer). Dose response curves were generated from measurements performed in quadruplicates. Lowest effective concentrations (LEC) values, defined as the concentration that induces an effect which is at least two fold above the standard deviation of the assay, were determined for each compound.

Assay [2] concerns HCV replicon (Huh-7 luc/neo cells). Description: Suppression of HCV replicon replication by conditioned media from PBMC. Type of assay: cell-based, HCV type 1b. Conditions: Hepatitis C virus, compound concentration applied to PBMCs giving 50% reduction of replicon luciferase activity, read-out: PBMC-HUH7_EC50. As for the experimental part: Activation of human TLR7 results in robust production of interferon by plasmacytoid dendritic cells present in human blood. The potential of compounds to induce interferon was evaluated by looking at the antiviral activity in the HCV replicon system upon incubation with conditioned media from peripheral blood mononuclear cells (PBMC). The HCV replicon assay is based on a bicistronic expression construct, as described by Lohmann et al. (Science (1999) 285: 110-113; Journal of Virology (2003) 77: 3007-15 3019) with modifications described by Krieger et al. (Journal of Virology (2001) 75: 4614-4624). The assay utilized the stably transfected cell line Huh-7 luc/neo harboring an RNA encoding a bicistronic expression construct comprising the wild type NS3-NS5B regions of HCV type 1b translated from an Internal Ribosome Entry Site (IRES) from encephalomyocarditis virus (EMCV), preceded by a reporter gene (Firefly-luciferase) and a selectable marker gene (neoR, neomycine phosphotransferase). The construct is flanked by 5′ and 3′ NTRs (non-translated regions) from HCV type 1b. Continued culture of the replicon cells in the presence of G418 (neoR) is dependent on the replication of the HCV RNA. The stably transfected replicon cells that replicate HCV RNA autonomously and to high levels, encoding inter alia luciferase, were used for profiling of the conditioned cell culture media.
Briefly, PBMCs were prepared from buffy coats of at least two donors using a standard Ficoll centrifugation protocol. Isolated PBMCs were resuspended in RPMI medium supplemented with 10% human AB serum and 2×10^5 cells/well were dispensed into 384-well plates containing compounds (70 μL total volume). After overnight incubation, 10 μL of supernatant was transferred to 384-well plates containing 2.2×10^3 replicon cells/well in 30 μL (plated the day before). Following 24 hours of incubation, replication was measured by assaying luciferase activity using 40 μL/well Steady Lite Plus substrate (Perkin Elmer) and measured with ViewLux ultraHTS microplate imager (Perkin Elmer). The inhibitory activity of each compound on the Huh7-luc/neo cells were reported as EC50 values, defined as the compound concentration applied to the PBMCs resulting in a 50% reduction of luciferase activity which in turn indicates the degree of replication of the replicon RNA on transfer of a defined amount of PBMC culture medium. Recombinant interferon α-2a (Roferon-A) was used as a standard control compound.
A general note: A replicon is a self-replicating genome or part of one, used to study replication in cells.

SMILES strings stand for the structures.

In turn, `CCCC[C@@H](CCO)Nc1nc(N)nc2cc(OC)c(OC)cc12` [Compound 3] displayed a TLR8-dIRR2_LEC in assay [1] of 2.4. Besides, the EC50 in assay [2] is 600 nM.

The compound `CCCCNc1nc(N)nc2cc(OC)c(OC)cc12` [Compound 1] had a TLR8-dIRR2_LEC in assay [1] of 0.6. The EC50 in assay [2] worked out at 1900 nM.

Values taken from patent US8916575B2, “Quinazoline derivatives for the treatment of viral infections and further diseases” (Janssen R&D Ireland, priority 2011, dated 2014).
